Patent US12599136B2, “Substituted isophthalic acid diamides and their use as herbicides” (Bayer Aktiengesellschaft, priority 2020, dated 2026)

Columns and labels:
Type in all cases: in vivo
[1] = test system: Pharbitis purpurea; assay: Pre-emergence herbicidal action against PHBPU; details: 320 g/ha; visual score after 3 weeks vs untreated controls
Outline: (§1)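 Greenhouse pots of sandy loam held seeds covered with soil, onto which the compound was applied before emergence. An aqueous suspension or emulsion of WP or EC was used at 600 to 800 l/ha with 0.2% wetting agent. Percent damage was judged visually at 3 weeks.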

[2] = test system: Cyperus esculentus; assay: Pre-emergence herbicidal action against CYPES; details: 320 g/ha; visual score after 3 weeks vs untreated controls
Outline: as §1

[3] = test system: Echinochloa crus-galli; assay: Pre-emergence herbicidal action against ECHCG; details: visual score after 3 weeks vs untreated controls
Outline: as §1

[4] = test system: Echinochloa crus-galli; assay: Post-emergence herbicidal action against ECHCG; details: visual assessment about 3 weeks after treatment
Outline: (§2)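 A WP or EC formulation diluted in water with 0.2% wetting agent was sprayed at 600 to 800 l/ha onto one-leaf-stage plants grown in sandy loam. About 3 weeks later, action was rated visually in percent, 100% being dead plants.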

[5] = test system: Amaranthus retroflexus; assay: Pre-emergence herbicidal action against AMARE; details: visual score after 3 weeks vs untreated controls
Outline: as §1

[6] = test system: Pharbitis purpurea; assay: Post-emergence herbicidal action against PHBPU; details: for Post-emergence action against PHBPU in %: visual assessment about 3 weeks after treatment
Outline: as §2

[7] = test system: Abutilon theophrasti; assay: Post-emergence herbicidal action against ABUTH
Outline: as §2

[8] = test system: Lolium rigidum; assay: Post-emergence herbicidal action against LOLRI; details: 80 g/ha
Outline: as §2

[9] = test system: Veronica persica; assay: Pre-emergence herbicidal action against VERPE; details: 320 g/ha
Outline: as §1

[10] = test system: Setaria viridis; assay: Post-emergence herbicidal action against SETVI; details: for Post-emergence action against SETVI in %: visual assessment about 3 weeks after treatment
Outline: as §2

[11] = test system: Abutilon theophrasti; assay: Pre-emergence herbicidal action against ABUTH; details: visual score after 3 weeks vs untreated controls
Outline: as §1

[12] = test system: Viola tricolor; assay: Post-emergence herbicidal action against VIOTR
Outline: as §2

[13] = test system: Cyperus esculentus; assay: Post-emergence herbicidal action against CYPES; details: visual assessment about 3 weeks after treatment
Outline: as §2

[14] = test system: Viola tricolor; assay: Pre-emergence herbicidal action against VIOTR
Outline: as §1

[15] = test system: Hordeum murinum; assay: Post-emergence herbicidal action against HORMU
Outline: as §2

[16] = test system: Stellaria media; assay: Post-emergence herbicidal action against STEME; details: for Post-emergence action against STEME in %: visual assessment about 3 weeks after treatment
Outline: as §2

[17] = test system: Stellaria media; assay: Pre-emergence herbicidal action against STEME
Outline: as §1

[18] = test system: Veronica persica; assay: Post-emergence herbicidal action against VERPE; details: visual assessment about 3 weeks after treatment
Outline: as §2

[19] = test system: Alopecurus myosuroides; assay: Post-emergence herbicidal action against ALOMY
Outline: as §2

[20] = test system: Polygonum convolvulus; assay: Pre-emergence herbicidal action against POLCO; details: 320 g/ha
Outline: as §1

[21] = test system: Hordeum murinum; assay: Pre-emergence herbicidal action against HORMU; details: visual score after 3 weeks vs untreated controls
Outline: as §1

[22] = test system: Setaria viridis; assay: Pre-emergence herbicidal action against SETVI
Outline: as §1

[23] = test system: Amaranthus retroflexus; assay: Post-emergence herbicidal action against AMARE; details: visual assessment about 3 weeks after treatment
Outline: as §2

[24] = test system: Lolium rigidum; assay: Pre-emergence herbicidal action against LOLRI
Outline: as §1

[25] = test system: Alopecurus myosuroides; assay: Pre-emergence herbicidal action against ALOMY; details: visual score after 3 weeks vs untreated controls
Outline: as §1

[26] = test system: Polygonum convolvulus; assay: Post-emergence herbicidal action against POLCO; details: 80 g/ha, visual assessment about 3 weeks after treatment
Outline: as §2

[27] = test system: Avena fatua; assay: Pre-emergence herbicidal action against AVEFA; details: visual score after 3 weeks vs untreated controls
Outline: as §1

[28] = test system: Avena fatua; assay: Post-emergence herbicidal action against AVEFA; details: for Post-emergence action against AVEFA in %: visual assessment about 3 weeks after treatment
Outline: as §2

[29] = test system: Matricaria inodora; assay: Post-emergence herbicidal action against MATIN; details: for Post-emergence action against MATIN in %: visual assessment about 3 weeks after treatment
Outline: as §2

[30] = test system: Matricaria inodora; assay: Pre-emergence herbicidal action against MATIN; details: visual score after 3 weeks vs untreated controls
Outline: as §1

[31] = comparative experiment, 5 g a.i./ha

CCn1nnnc1NC(=O)c1ccc(C(F)(F)F)c(C(=O)N(C)C)c1Cl [Example 2-123]
90%: Pre-emergence action against AMARE ([5]; 20 g/ha) | Post-emergence action against PHBPU in % ([6]; 20 g/ha) | Post-emergence action against CYPES in % ([13]; 80 g/ha) | Pre-emergence action against VIOTR ([14]; 80 g/ha) | Post-emergence action against HORMU in % ([15]; 20 g/ha) | Pre-emergence action against STEME ([17]; 20 g/ha) | Post-emergence action against ALOMY ([19]; 5 g/ha) | Pre-emergence action against SETVI ([22]; 20 g/ha) | Pre-emergence action against ALOMY ([25]; 80 g/ha) | Post-emergence action against POLCO in % [26] | Pre-emergence action against AVEFA ([27]; 80 g/ha) | Post-emergence action against MATIN in % ([29]; 5 g/ha) | Post-emergence action against MATIN in % ([29]; 20 g/ha)
100: Herbicidal action against SETVI [10, 31] | Herbicidal action against STEME [16, 31]
90: Herbicidal action against ALOMY [19, 31] | Herbicidal action against MATIN [29, 31]
100%: Pre-emergence action against ECHCG ([3]; 80 g/ha) | Pre-emergence action against ECHCG ([3]; 320 g/ha) | Post-emergence action against ECHCG in % ([4]; 5 g/ha) | Post-emergence action against ECHCG in % ([4]; 20 g/ha) | Post-emergence action against ECHCG in % ([4]; 80 g/ha) | Pre-emergence action against AMARE ([5]; 80 g/ha) | Pre-emergence action against AMARE ([5]; 320 g/ha) | Post-emergence action against PHBPU in % ([6]; 80 g/ha) | Post-emergence action against ABUTH ([7]; 5 g/ha) | Post-emergence action against ABUTH ([7]; 20 g/ha) | Post-emergence action against ABUTH ([7]; 80 g/ha) | Post-emergence action against LOLRI in % [8] | Pre-emergence action against VERPE [9] | Post-emergence action against SETVI in % ([10]; 5 g/ha) | Post-emergence action against SETVI in % ([10]; 20 g/ha) | Post-emergence action against SETVI in % ([10]; 80 g/ha) | Pre-emergence action against ABUTH ([11]; 20 g/ha) | Pre-emergence action against ABUTH ([11]; 80 g/ha) | Pre-emergence action against ABUTH ([11]; Dosage column 320 g/ha (heading prints 3200 g/ha)) | Post-emergence action against VIOTR in % ([12]; 20 g/ha) | Post-emergence action against VIOTR in % ([12]; 80 g/ha) | Pre-emergence action against VIOTR ([14]; 320 g/ha) | Post-emergence action against HORMU in % ([15]; 80 g/ha) | Post-emergence action against STEME in % ([16]; 5 g/ha) | Post-emergence action against STEME in % ([16]; 20 g/ha) | Post-emergence action against STEME in % ([16]; 80 g/ha) | Pre-emergence action against STEME ([17]; 80 g/ha) | Pre-emergence action against STEME ([17]; 320 g/ha) | Post-emergence action against VERPE in % ([18]; 80 g/ha) | Post-emergence action against ALOMY ([19]; 20 g/ha) | Post-emergence action against ALOMY ([19]; 80 g/ha) | Pre-emergence action against HORMU ([21]; 320 g/ha) | Pre-emergence action against SETVI ([22]; 80 g/ha) | Pre-emergence action against SETVI ([22]; 320 g/ha) | Post-emergence action against AMARE in % ([23]; 5 g/ha) | Post-emergence action against AMARE in % ([23]; 20 g/ha) | Post-emergence action against AMARE in % ([23]; 80 g/ha) | Pre-emergence action against LOLRI ([24]; 320 g/ha) | Pre-emergence action against ALOMY ([25]; 320 g/ha) | Pre-emergence action against AVEFA ([27]; 320 g/ha) | Post-emergence action against AVEFA in % ([28]; 20 g/ha) | Post-emergence action against AVEFA in % ([28]; 80 g/ha) | Post-emergence action against MATIN in % ([29]; 80 g/ha) | Pre-emergence action against MATIN ([30]; 80 g/ha) | Pre-emergence action against MATIN ([30]; 320 g/ha)
80%: Pre-emergence action against PHBPU [1] | Pre-emergence action against CYPES [2] | Pre-emergence action against ECHCG ([3]; 20 g/ha) | Post-emergence action against PHBPU in % ([6]; 5 g/ha) | Post-emergence action against CYPES in % ([13]; 5 g/ha) | Post-emergence action against CYPES in % ([13]; 20 g/ha) | Post-emergence action against VERPE in % ([18]; 20 g/ha) | Pre-emergence action against POLCO [20] | Pre-emergence action against HORMU ([21]; 80 g/ha) | Pre-emergence action against LOLRI ([24]; 80 g/ha) | Post-emergence action against AVEFA in % ([28]; 5 g/ha)
80: Herbicidal action against PHBPU [6, 31] | Herbicidal action against AVEFA [28, 31]
